“And” between values parts separate entries of the source, which are not always exact repeats. Equal values may be shown once. Bridges are numbered along the chain shown (N, C = ends). Roman numbers before positions name the chains, in order. Where no end group is shown, it is not given here. [ ]: non-standard residue; d: D form. Dopa = N[C@@H](Cc1ccc(O)c(O)c1)C(=O)O; ACP = 6-aminocaproic acid (linker); Hyp = O=C(O)[C@@H]1C[C@@H](O)CN1
Legend:
[1] = Pharmacokinetic study of tritium-labelled peptide after rectal administration (total radioactivity by liquid scintillation); conditions: for Total radioactivity at 168 h (Cmax %): 168 h as % of Cmax
Procedure: 1 mL of a pH 5.0 acetic acid solution was added to the product of Example 3 above with even mixing. 0.952 mL of the resultant solution was added to a 40 mL glass bottle.
About 200 μL of 0.5% Evans Blue aqueous solution was added followed by even mixing. […] 30 Sprague-Dawley rats, half male and half female (Beijing Vital River Laboratory Animal Technology Co., Ltd.) were quarantined and acclimatised in polycarbonate cages for 5 to 7 days. The environmental conditions were controlled at room temperature of between 20° C. and 26° C., with a relative humidity of between 40% and 70%, with 12 hours of alternating lightness and darkness.
The body weights required for randomization were obtained on Day 1 (before dosing). After randomization, rats were assigned to one of five groups (three animals per sex in each group).
After weighing, animals were anesthetized by Intramuscular Injection of Zoletil-50. The animals were placed on their backs. Stools at the end of their rectums were gently squeezed out, and the skin around anus was disinfected with 75% alcohol.
A closed catheter (No. 8, double lumen with guide wire) was Inserted Into the anus of the rats to a depth of about 3 cm, and then a gastric lavage needle was slowly Inserted to a depth of at least 3.5 cm. After lifting the perlanal skin, fixing the catheter and the gavage needle, about 1 mL of water was Injected Into the bladder cavity of the syringe guide catheter to make it expand. Then the gel comprising the title compound was given quickly through the needle.
After administration, the catheter was ligated and fixed by wrapping tape around the root of the rats' tails. The catheter remained in the rectum for about 4 hours before removal.
Blood, rectal contents and rectal mucosa samples were collected. All centrifuge tubes coated with EDTA-K2 were stored either in a refrigerator (at 2 to 8° C.) or In a cooler filled with Ice, and were protected from light prior to use. The collected blood was transferred Into the centrifuge tubes and stored in an Ice box protected from light after being mixed manually by reversing the tubes at least 5 times.
Then, the tubes were centrifuged at 1800 g for 10 minutes at between 2 and 8° C., 2 hours after blood collection. After centrifugation, the collected plasma samples were transferred Into newly-labeled centrifuge tubes and aliquoted Into two sets, stored ay below −70° C.
Plasma, rectal contents and rectal mucosa samples were analyzed using a liquid scintillation counter, and the radioactive concentration was calculated according to the actual sampling volume. Half-lives were also calculated using WinNonlin software. MS Excel was used for data statistical analysis, including mean, standard deviation (SD), and coefficient of variation (CV), etc.
Total radioactivity unit (ng Eq./g)=DPM/g÷S.A. ×1000, S.A.=144,300 DPM/μg

[2] = Fluorescence stability of the 0.05 mg/mL aqueous solution at room temperature; type: physicochemical; conditions: 0.05 mg/mL in distilled water, after one hour at room temperature
Procedure: (§1) The title compound of Example 1 above was dissolved in distilled water to make a 0.05 mg/mL solution. The fluorescence absorption of the solution was scanned at 520 nm using a Hitachi F-7000 fluorescence spectrophotometer with an Interval of 20 nm. The optimal excitation wavelength was 450 nm and the maximum absorption wavelength was 521 nm.

rat rectum [3] = assay: In vivo adhesive study: fluorescence imaging of rat rectum after rectal injection
Procedure: as §1
In an in vivo study, four rats were anesthetized by intraperitoneal injection of 5% chloral hydrate at a dose of 7 ml/kg. 1 mL of the solution of test compound was Injected Into the rectum using a 2 mL syringe. Swallowtail clamps were used to seal the anus to keep the liquid in rectum for about 2 hours. Rats were sacrificed at 2 hours, 4 hours, 8 hours and 24 hours after injection of test compound.
(§2) In a separate ex vivo study, rats were anesthetized and their abdominal cavities opened. 8 cm of the rectum was removed and cut Into 2 pieces, with fat and contents stripped. 1 mL of normal saline was used to flush the rectal cavities, which were then placed Into a constant humidity plate. 1 mL of the solution of test compound was Injected Into the rectum and ligated at both ends. Samples were taken at 0 hours, 0.5 hours, 1 hour and 2 hours for fluorescence imaging. A MZX81 fluorescence stereomicroscope was used for imaging (Guangzhou Micro-Shot Technology Co., Ltd).
(§3) The fluorescence Images are show in FIG. 1 (in vivo study) and FIG. 2 (ex vivo study).

rat rectum [4] = assay: Ex vivo adhesive study: fluorescence imaging of excised rat rectum; conditions: rat rectum, 0, 0.5, 1 and 2 hours, FIG. 2
Procedure: as §1, §2, §3

Substance: I: AKPSY[Hyp]T[Dopa][Hyp]KKK-OH / II: AKPSY[Hyp]T[Dopa][Hyp]KK / III: AKPSY[Hyp]T[Dopa][Hyp]K / IV: AKPSY[Hyp]T[Dopa][Hyp]K (amide I:11-IV:C, I:12-II:C, II:11-III:C) [Example 3, ^3H-Labelled [(Ala-Lys-Pro-Ser-Tyr-Hyp-Thr-DOPA-Hyp-Lys)2-Lys]2-Lys]
- radioactivity in rectal mucosa relative to rectal contents ([1]; 24 hours after administration): about 6.01 times
- radioactivity in rectal mucosa relative to rectal contents ([1]; 72 hours after administration): ~3.32 times
- radioactivity in rectal mucosa relative to rectal contents ([1]; 168 hours): 2.28 times
- radioactivity concentration of rectal mucosa relative to plasma ([1]; one hour after rectal administration): 1121 times
- Total radioactivity ([1]; plasma, 1 h, rectal 1.5 mg/100 μCi/kg, rats): 47.8 ng Eq./g and 47.8 ± 12.2 ng Eq./g
- Total radioactivity ([1]; plasma, 6 h, rectal 1.5 mg/100 μCi/kg, rats): 54.1 ng Eq./g and 54.1 ± 14.4 ng Eq./g
- Total radioactivity ([1]; plasma, 24 h, rectal 1.5 mg/100 μCi/kg, rats): 18.6 ± 6.2 ng Eq./g
- Total radioactivity ([1]; plasma, 72 h, rectal 1.5 mg/100 μCi/kg, rats): 15.2 ± 8.4 ng Eq./g
- Total radioactivity ([1]; plasma, 168 h, rectal 1.5 mg/100 μCi/kg, rats): 13.3 ± 3.41 ng Eq./g
- tolerability of the experimental dose ([1]; rectal 1.5 mg/100 μCi/kg, rats): well tolerated
- adverse reaction after administration ([1]; rectal 1.5 mg/100 μCi/kg, rats, whole experiment): no obvious adverse reaction
- time of highest total radioactivity after administration ([1]; rectal contents): 1 h
- Total radioactivity ([1]; rectal contents, 1 h, rectal 1.5 mg/100 μCi/kg, rats): 35322 ng Eq./g and 35322 ± 515 ng Eq./g
- Total radioactivity ([1]; rectal contents, 6 h, rectal 1.5 mg/100 μCi/kg, rats): 21981 ± 153 ng Eq./g
- Total radioactivity ([1]; rectal contents, 24 h, rectal 1.5 mg/100 μCi/kg, rats): 56.4 ± 54. ng Eq./g
- average concentration at 24 hours as % of Cmax ([1]; rectal contents): ~0.16%
- Total radioactivity ([1]; rectal contents, 72 h, rectal 1.5 mg/100 μCi/kg, rats): 44.3 ± 27. ng Eq./g
- Total radioactivity ([1]; rectal contents, 168 h, rectal 1.5 mg/100 μCi/kg, rats): 16.5 ng Eq./g and 16.5 ± 6.88 ng Eq./g
- Total radioactivity at 168 h (Cmax %) ([1]; rectal contents): 0.05%
- time of highest total radioactivity after administration ([1]; rectal mucosa): 1 h
- Total radioactivity ([1]; rectal mucosa, 1 h, rectal 1.5 mg/100 μCi/kg, rats): 53593 ng Eq./g and 53593 ± 472 ng Eq./g
- radioactivity concentration of rectal mucosa relative to that at 1 h ([1]; rectal mucosa, 6 h (11163 ng Eq./g)): about 20.83%
- Total radioactivity ([1]; rectal mucosa, 6 h, rectal 1.5 mg/100 μCi/kg, rats): 11163 ng Eq./g and 11163 ± 702 ng Eq./g
- Total radioactivity ([1]; rectal mucosa, 24 h, rectal 1.5 mg/100 μCi/kg, rats): 339 ng Eq./g and 339 ± 95. ng Eq./g
- average concentration at 24 hours as % of Cmax ([1]; rectal mucosa): about 0.63%
- Total radioactivity ([1]; rectal mucosa, 72 h, rectal 1.5 mg/100 μCi/kg, rats): 147 ng Eq./g and 147 ± 84. ng Eq./g
- Total radioactivity ([1]; rectal mucosa, 168 h, rectal 1.5 mg/100 μCi/kg, rats): 37.6 ng Eq./g and 37.6 ± 10.2 ng Eq./g
- Total radioactivity at 168 h (Cmax %) ([1]; rectal mucosa): 0.07%
- gender differences in total radioactivity concentrations ([1]; rectal mucosa, rectal contents and plasma, male vs female rats): no significant gender differences

Substance: [5-FITC-ACP-Ala-Lys-Pro-Ser-Tyr-Hyp-Thr-DOPA-Hyp-Lys)2-Lys]2-Lys ({5‑FITC-ACP}-AKPSY[Hyp]T[Dopa][Hyp]K; also: branched dendrimer: four peptide copies on a three-Lys core) [Example 1]
- fluorescence intensity (stability of test compound in solution) [2]: did not change
- adhesiveness of test compound to mucous (rat rectum [3]; rat rectum, 2, 4, 8 and 24 hours after injection, FIG. 1): very stable
- fluorescence intensity in the in vivo samples (rat rectum [3]; rat rectum, even with constant fecal excretion): did not decrease significantly
- adhesiveness of test compound to mucous (rat rectum [4]): very stable
